From ChEMBL document CHEMBL1240317, “Probing cell-division phenotype space and Polo-like kinase function using small molecules” (Nat Chem Biol, 2006)
Active and inactive are the calls of the source.

Columns and labels:
Type in all cases: functional, cell-based
BSC-1 [1] = test: Induction of deffects in mitotic spindle in african green monkey BSC1 cells at 20 uM after 4 hrs by immunocytochemistry; settings: Chlorocebus aethiops
BSC-1 [2] = test: Antimitotic activity against african green monkey BSC1 cells assessed as induction of monopolar spindles at 20 uM by immunofluorescence microscopy; settings: Chlorocebus aethiops
BSC-1 [3] = test: Antimitotic activity against african green monkey BSC1 cells assessed as induction of sphere like organization at 2.5 uM by immunofluorescence microscopy; settings: Chlorocebus aethiops
BSC-1 [4] = test: Antimitotic activity against african green monkey BSC1 cells assessed as induction of bipolar spindles with decrease in pole to pole distance at 20 uM by immunofluorescence microscopy; settings: Chlorocebus aethiops
BSC-1 [5] = test: Induction of reduced mitotic index in african green monkey BSC1 cells at 20 uM after 4 hrs by immunocytochemistry; settings: Chlorocebus aethiops
BSC-1 [6] = test: Antimitotic activity against african green monkey BSC1 cells assessed as induction of monopolar spindles and spindle pole deffects at 20 uM by immunofluorescence microscopy; settings: Chlorocebus aethiops
BSC-1 [7] = test: Antimitotic activity against african green monkey BSC1 cells assessed as induction of chromosome alignment deffects at 20 uM by immunofluorescence microscopy; settings: Chlorocebus aethiops
BSC-1 [8] = test: Induction of severe microtubule disruption in african green monkey BSC1 cells at 20 uM after 4 hrs by immunocytochemistry; settings: Chlorocebus aethiops
U2OS [9] = test: Disruption of interphase microtubule organization in human U2OS cells at 250 uM after 4 hrs by immunofluorescence
U2OS [10] = test: Reduction in gamma-tubulin level in centrosomes in human U2OS cells at 250 uM after 4 hrs by immunofluorescence

Row | Compound | Activity (BSC-1 [1]) | Activity (BSC-1 [5]) | Activity (BSC-1 [8]) | other results
1 | CN1CCN(c2ccc(Nc3ncc([N+](=O)[O-])c(Nc4ccccc4C(=O)c4ccccc4)n3)cc2)CC1 | Active | – | – | Activity (BSC-1 [2]): Active; Activity (BSC-1 [3]): Active
2 | c1cc(Nc2ccc3c(c2)OCO3)nc(Nc2ccc3c(c2)CCC3)n1 | Active | – | – | Activity (BSC-1 [4]): Active
3 | CCCCNc1nc(Nc2ccc(N3CCN(C)CC3)cc2)ncc1[N+](=O)[O-] | – | Active | – | Activity (BSC-1 [6]): Active
4 | c1csc(CNc2nccc(Nc3ccc4c(c3)OCO4)n2)c1 | Active | – | – | Activity (BSC-1 [7]): Active
5 | O=C(c1ccccc1)c1ccccc1Nc1nc(Nc2ccc3c(c2)OCO3)ncc1[N+](=O)[O-] | Active | – | – | Activity (BSC-1 [7]): Active
6 | O=[N+]([O-])c1cnc(NC2CCCC2)nc1Sc1cccc(Cl)c1 | Active | Active | Active | –
7 | CC(C)(C)c1ccc(Nc2ncc([N+](=O)[O-])c(NC3CCCC3)n2)cc1 | Active | Active | Active | –
8 | NC(=O)c1ccccc1Nc1nc(NCCCN2CCCC2=O)ncc1[N+](=O)[O-] | Active | Active | Active | –
9 | CC(=O)Nc1ccc(Nc2ncc([N+](=O)[O-])c(Sc3cccc(Cl)c3)n2)cc1 | Active | Active | Active | –
10 | O=[N+]([O-])c1cnc(NC(CO)Cc2ccccc2)nc1Nc1ccc2ncsc2c1 (configuration not stated) | Active | Active | Active | –
11 | CC(C)CC(CO)Nc1ncc([N+](=O)[O-])c(Nc2ccc3ncsc3c2)n1 (configuration not stated) | Active | Active | Active | –
12 | CCCCNc1ncc([N+](=O)[O-])c(Nc2ccccc2C(=O)c2ccccc2)n1 | Active | Active | Active | –
13 | CN1CCN(c2ccnc(Cl)n2)CC1 | Active | Active | Active | –
14 | CC(=O)Nc1ccc(Nc2ccnc(NC(CO)Cc3ccccc3)n2)cc1 (configuration not stated) | Active | Active | Active | –
15 | O=[N+]([O-])c1cnc(NC2CCCC2)nc1Nc1ccc2ncsc2c1 | Active | Active | Active | –
16 | CN1CCN(c2ccc(Nc3ncc([N+](=O)[O-])c(Nc4ccc(Cl)c(Cl)c4)n3)cc2)CC1 | Active | Active | Active | –
17 | NC(=O)c1ccccc1Nc1nc(NC2CCCC2)ncc1[N+](=O)[O-] | Active | Active | Active | –
18 | COc1cc(OC)c(/C=C/S(=O)(=O)Cc2ccc(OC)c(NCC(=O)O)c2)c(OC)c1 | – | – | – | Activity (U2OS [9]): inactive; Activity (U2OS [10]): inactive
19 | O=[N+]([O-])c1cnc(Nc2ccc3ncsc3c2)nc1Nc1ccc(Cl)c(Cl)c1 | Active | Active | Active | –
20 | O=C(c1ccccc1)c1ccccc1Nc1ncc([N+](=O)[O-])c(Nc2ccc(Cl)c(Cl)c2)n1 | Active | Active | Active | –
21 | O=[N+]([O-])c1cnc(NC2CCCC2)nc1Nc1ccc2[nH]ccc2c1 | Active | Active | Active | –
22 | c1cc(Nc2nccc(Nc3ccc4c(c3)CCC4)n2)ccn1 | Active | Active | Active | –
23 | NC(=O)c1ccccc1Nc1nc(NC2CCCCCC2)ncc1[N+](=O)[O-] | Active | Active | Active | –
24 | CC(C)(C)c1ccc(Nc2ncc([N+](=O)[O-])c(Nc3ccc(Cl)c(Cl)c3)n2)cc1 | Active | Active | Active | –
